For data set [1], the system named is Epidermophyton flocossum. Briefly: Minimum Inhibiting Concentration test. Type of data set: cell-based. Particulars: fungi, 25° C., 1 month. The method, then: (§1) First, 200 mg. each of the compounds, AA, CC, GG, II and MM are placed in 100 ml. of a 10% ethyl alcohol solution resulting in a concentration of 2.00 mg/ml. and then 11 serial two fold dilutions are made to a final concentration of […]. Thus, a range of concentrations of from 0.0001 mg/ml. to 2.00 mg/ml. are prepared. Separately, 1000 ml. of a standard Antibiotic Medium #3 is innoculated with 1 ml. of a 24 hour broth culture of each of the test organisms and the resulting solutions are dispersed in 2 ml. portions into 13 mm×100 mm test tubes at 4° C. Two test tubes for each of the test organisms are prepared.
(§2) Then, 0.4 ml. of each concentration of the compound to be tested is placed in each of the test tubes, which are then shaken and placed at a temperature of 35° C. for a period of 18 hours for bacteria, 25° C. for a period of 3 days for yeast, and 25° C. for a period of 1 month for fungi. The end point of the activity is determined by streaking utilizing a calibrated loop to Trypticase Soy Agar to determine the last tube (concentration) with growth and the next greatest concentration.

The test system of data set [2] is Aspergillus niger. Briefly: Minimum Inhibiting Concentration test. Type of data set: cell-based. Particulars: fungi, 25° C., 1 month. The method, then:
as §1, §2

Data set [3] has as its system Staphylococcus pyogenes. Nature of the data set: Minimum Inhibiting Concentration test. In kind it is cell-based. Particulars: 35° C., 18 hours; for MIC: Staphylococcus aureus. Here is the method:
as §1, §2

Data set [4] relates to Candida albicans. Briefly: Minimum Inhibiting Concentration test. Type of data set: cell-based. Particulars: yeast, 25° C., 3 days; for MIC: 72 h. The method, then:
as §1, §2

The test system of data set [5] is Staphylococcus epidermis. Nature of the data set: Minimum Inhibiting Concentration test. Type of data set: cell-based. Particulars: 35° C., 18 hours. Here is the method: as §1, §2
In data set [6] the test system is Escherichia coli. Briefly: Minimum Inhibiting Concentration test. In kind it is cell-based. Particulars: 35° C., 18 hours. Here is the method: as §1, §2
Data set [7] has as its system Staphylococcus aureos. Nature of the data set: Minimum Inhibiting Concentration test. In kind it is cell-based. Particulars: 35° C., 18 hours. The method, then:
as §1, §2

The test system of data set [8] is Proteus vulgaris. Briefly: Minimum Inhibiting Concentration test. In kind it is cell-based. The note with it: 35° C., 18 hours. The method, then:
as §1, §2

Data set [9] deals with Proteus mirabilis. Nature of the data set: Minimum Inhibiting Concentration test. In kind it is cell-based. The note with it: 35° C., 18 hours. The method, then:
as §1, §2

Data set [10] deals with Pseudomonas aeruginosa. Nature of the data set: Minimum Inhibiting Concentration test. In kind it is cell-based. Particulars: 35° C., 18 hours. The method, then: as §1, §2
Data set [11] concerns Trichophyton mentagrophytes. Nature of the data set: Minimum Inhibiting Concentration test. In kind it is cell-based. Particulars: fungi, 25° C., 1 month. The method, then: as §1, §2
Data set [12] can be described thus: hair fly-away: electrostatic charge of brushed hair tresses (Faraday pail, electrometer). Particulars: one percent aqueous solutions; hair tresses brushed or combed 20 strokes. The method, then: To test the hair fly-away characteristics of the novel bisquaternary ammonium compounds of the present invention, the following test procedure can be utilized.
The hair to be utilized is formed into six inch long, 1.5 gram weight tresses, cleaned with methanol first, then with a 1% solution of sodium lauryl sulfate followed by a rinse with distilled water. The tress is then dried in an oven at 55° C. The tresses except for the controls are then treated with the test compounds and redried at 55° C.
An electrometer (Electrometer Model 610C, Keithley Instrument Co., Cleveland, Ohio) to serve as a coulomb meter for direct measurement of charge is attached to a Faraday pail and switched on.
The test tresses are singly taken out of the drying oven, held at the tied end and brushed or combed twenty strokes alternating between front and back side of the tress as held by the operator. A clean brush or comb is utilized and the velocity with which the brush or comb is traversed through the tress is maintained constant as much as possible. Further, since the electrostatic charges are capable of being quickly dissipated into the atmosphere, the procedure consists of uniformly brushing or combing 20 strokes in a period of 10 seconds and immediately following the last stroke, the lid of the Faraday cage is opened and the tress is dropped into the Faraday pail without contacting any other object and the lid is replaced. The charge in coulombs is read from the electrometer and the tress is then removed from the Faraday pail and the instrument is reset for the next tress sample.
Since electrostatic charge buildup creates fly-away in atmospheres of low humidity, these compounds are useful to prevent said fly-away condition.

In data set [13] the test system is rabbit eye. Nature of the data set: modified Draize Test, ocular irritation. In kind it is in vivo. Particulars: 3.50% of compound in shampoo composition; 0.1 ml per eye, albino rabbit; control shampoo rated Severe Irritant. Here is the method: The bisquaternary ammonium compounds of the present invention can be tested for ocular irritation by the following modified Draize Test (J. H. Draize et al., Toilet Goods Assn. No. 17, May 1952, No. 1, Proc. Sci. Sect.).
An 0.1 ml. sample of a neutral composition under test is dropped into one eye of an albino rabbit, the other eye serving as a control. Six rabbits are employed for each composition. Observations are made after 1, 24, 48, 72 and 96 hours and 7 days after initial instillation; second and third instillations are made after the 24 and 48 hour readings. Results may vary from substantially no change or only a slight irritation in the appearance of the rabbit's eye after 7 days to severe irritation and/or complete corneal opacity. Ocular lesions are scored for the cornea, iris and conjunctiva with a higher number indicating greater ocular irritation and the scores are added to give a total numerical value for each reading for six rabbits and averaged. The averaged score is an indication of the irritation potential of the composition under test. Based on the averaged score, descriptive irritation evaluation may be given, e.g., none, slight, moderate, severe, as the case may be.
A shampoo composition is prepared consisting of the following ingredients:
This formulation serves as a control with three additional formulations being made with the only difference being that in each of said formulations 3.50% of distilled water is replaced with 3.50% of compound JJ, KK and LL respectively. These formulations are then tested in accordance with the above procedure and the results are shown below in Table I.

7 molecules from US4312813A, “Bisquaternary ammonium compound” (Johnson & Johnson Baby Products Company, priority 1980, dated 1982) can be followed below.

Some results are limits rather than exact numbers.

Consider `C=CCCCCCCCCC(=O)NCCC[N+](C)(C)CCCC[N+](C)(C)CCCNC(=O)CCCCCCCCC=C` [AA, N,N'-undecenylamidopropyl-N,N,N',N'-tetramethyl-1,-4-butylene diammonium bromide], for which the minimal inhibitory concentration (MIC) stood at 125 µg/mL in data set [1]; 250 µg/mL in [2]; 500 µg/mL in data set [3]; 250 µg/mL in [4]; 62.5 µg/mL in data set [5]; 125 µg/mL in [6]. Moreover, the MIC is 125 µg/mL in data set [7]; 250 µg/mL in data set [8]; below 2000 µg/mL in data set [9]; 1000 µg/mL in [10]; 16 µg/mL in data set [11].
With `CCCCCCCCCCCC(=O)NCCC[N+](C)(C)CCOCC[N+](C)(C)CCCNC(=O)CCCCCCCCCCC` [CC, N,N'-di(lauramidopropyl)-N,-N,N',N'-tetramethyl-1,5(3-oxapentylene) diammonium bromide], the “charge reduction compared to the control” value in data set [12] is recorded as “greater than 95%”. For the same molecule, the MIC in data set [1] turned out to be 62.5 µg/mL; in data set [2], 125 µg/mL; in [3] it was 250 µg/mL; in data set [4], 63 µg/mL; in data set [5] it was 125 µg/mL; in [6], 125 µg/mL. The MIC in data set [7] is 250 µg/mL; in data set [8], below 2000 µg/mL; in data set [9], below 2000 µg/mL; in data set [10] it was 250 µg/mL; in data set [11] it was 16 µg/mL.
`CCCCCCCCCCCCCCCCCC(=O)NCC[N+](CC)(CC)CCOCC[N+](CC)(CC)CCNC(=O)CCCCCCCCCCCCCCCCC` [GG, N,N'-di(stearamidoethyl)-N,N,N',N'-tetraethyl-1,5(3-oxapentylene)diammonium dibromide]: the MIC is 250 µg/mL in [1]; 250 µg/mL in data set [2]; below 2000 µg/mL in [3]; 31 µg/mL in data set [4]; 62.5 µg/mL in data set [5]; 1000 µg/mL in data set [6]. The MIC was 625 µg/mL in data set [7]; below 2000 µg/mL in data set [8]; below 2000 µg/mL in data set [9]; below 2000 µg/mL in data set [10]; 16 µg/mL in data set [11].
With `CCCCCCCCCCCCCCCCCCCCCC(=O)NCCC[N+](C)(C)CCOCC[N+](C)(C)CCCNC(=O)CCCCCCCCCCCCCCCCCCCCC` [KK, N,N'-di(docosamidopropyl)-N,N,N',N'-tetramethyl-1,5(3-oxapentylene)diammonium dibromide], the ocular irritation rating entry in data set [13] is on record as “Slight-Moderate Irritant”.
For the molecule `CCCCCCCCCCCCCCCCCCCCCC(=O)NCCC[N+](C)(C)CCOCCOCCOCCOCCOCCOCCOCCOCCOCCOCCOCCOCC[N+](C)(C)CCCNC(=O)CCCCCCCCCCCCCCCCCCCCC.[Br-].[Br-]` [LL, N,N'-di(docosamidopropyl)-N,N,N',N'-tetramethyl-1,38(3,6,9,12,15,18,21,24,-27,30,33,36-dodeca-oxaoctatricontylene)diammonium dibromide], the “charge reduction compared to the control” value in [12] was “greater than 95%”. The ocular irritation rating result in [13] is “Slight-Moderate Irritant”.
As for “N,N'-di(octadidecenamidopropyl)-N,N,N',N'-tetramethyl-1,20 (2,5,8,11,14,17,20-heptamethyl-3,6-9,12,15,18-hexaoxaeicosylene) diammonium dibromide [II]”, the minimum inhibiting concentration was 500 µg/mL in data set [1]; 500 µg/mL in data set [2]; below 2000 µg/mL in [3]; 250 µg/mL in [4]; 1000 µg/mL in [5]; 500 µg/mL in data set [6]. The minimum inhibiting concentration was 2000 µg/mL in data set [7]; below 2000 µg/mL in data set [8]; below 2000 µg/mL in data set [9]; 2000 µg/mL in data set [10]; 31 µg/mL in data set [11].
Turning to “N,N'-di(octatridecenamidopropyl)-N,N,N',N'-tetramethyl-1,5(3-oxapentylene)-diammonium dibromide [JJ]”, the “charge reduction compared to the control” value in [12] is listed as “greater than 95%”. Moreover, the ocular irritation rating result in data set [13] was “Slight Irritant”.

The MIC is the smallest concentration in the dilution series that meets the test's criterion for growth inhibition.
